According to patent US9012493B2, “1-heterodiene derivative and pest control agent” (Nippon Soda Co., Ltd., priority 2009, dated 2015):

What was measured:
Format in all cases: in vivo
[1] = test system: Twospotted Spider Mite (Tetranychus Urticae Koch); assay: Efficacy test against twospotted spider mite, spray on kidney bean plant; settings: 125 ppm, wettable powder diluted with water, sprayed, female adults with resistance to an organophosphorus agent on kidney bean, after 3 days
Method: The wettable powder obtained according to Formulation of Formulation Example 1 was diluted with water so as to control the concentration of the compound to 125 ppm. Seventeen female adults of twospotted spider mite with resistance to an organophosphorus agent were inoculated on a first true leaf of a kidney bean plant (approximately 7 to 10 days after sprouting) sown in a 3 sun/size pot (9 cm). The diluted solution was sprayed. The pot was placed in a temperature-controlled room at a temperature of 25° C. and a humidity of 65%. After 3 days, the adulticidal rate was examined. The test was repeated twice.

[2] = test system: Sweetpotato Whitefly (Bemisia Tabaci); assay: Efficacy test against sweetpotato whitefly, sprayed tomato leaf; settings: 125 ppm, emulsifiable concentrate diluted with water, adults (type B), after 2 days, 25° C.
Method: (§1) Test Examples of the pest control agent thus obtained according to the present invention are shown below. In respective Test Examples, the insecticidal rate (%) was determined by the following calculation equation. Insecticidal rate (%)=(number of dead pests/number of released pests)×100
The emulsifiable concentrate obtained according to Formulation of Formulation Example 2 was diluted with water so as to control the concentration of the compound to 125 ppm. The diluted solution was sprayed over a tomato leaf obtained by cutting and then air-dried. Using absorbent cotton, the leaf was fixed to a flask so that a front surface of the leaf faces upward. Seven pairs of adults of sweetpotato whitefly (type B) were inoculated in this container, and the container was placed in a temperature-controlled room at a temperature of 25° C. and a humidity of 65%. After 2 days, life and death were examined and the insecticidal rate was determined. The test was repeated twice.

[3] = test system: Rice Armyworm (Mythimna Separata); assay: Efficacy test against rice armyworm, corn leaf dip; settings: 125 ppm, emulsifiable concentrate diluted with water, corn leaves immersed, second instar larvae, after 5 days, 25° C.
Method: as §1
The emulsifiable concentrate obtained according to Formulation of Formulation Example 2 was diluted with water so as to control the concentration of the compound to 125 ppm. Leaves of corn were immersed in this diluted solution for 30 seconds and then air-dried. The leaves were put in a petri dish on which a filter paper is laid, and then five second instar larvae of rice armyworm were inoculated. After covering the petri dish with a glass lid, the petri dish was placed in a temperature-controlled room at a temperature of 25° C. and a humidity of 65%. After 5 days, life and death were examined and the insecticidal rate was determined. The test was repeated twice.

[4] = test system: Cotton Aphid (Aphis Gossypii); assay: Efficacy test against cotton aphid, spray on cucumber plant; settings: 125 ppm, emulsifiable concentrate diluted with water, sprayed over cucumber plant with nymphs, after 5 days, 25° C.
Method: as §1
The emulsifiable concentrate obtained according to Formulation of Formulation Example 2 was diluted with water so as to control the concentration of the compound to 125 ppm. Adults of cotton aphids were inoculated to a cucumber plant (approximately 10 days after sprouting) sown in a 3 sun/size pot (9 cm). After 1 day, adult aphids were removed and the diluted solution was sprayed over the cucumber plant on which delivered nymphs are parasitic. The pot was placed in a temperature-controlled room at a temperature of 25° C. and a humidity of 65%. After 5 days, life and death were examined and the insecticidal rate was determined. The test was repeated twice.

C=C1SC(=Nc2ccc(C)cc2)C(=CSc2cccc(F)c2)CC1(C)C (mixture of isomers) [Compound 2-84]
100%: adulticidal rate [1] | insecticidal rate [2] | insecticidal rate [3] | insecticidal rate [4]

C=C1SC(=Nc2ccc(C)cc2)C(=CSc2ccccc2F)CC1(C)C (mixture of isomers) [Compound 2-85]
100%: adulticidal rate [1] | insecticidal rate [2] | insecticidal rate [3] | insecticidal rate [4]

C=C1SC(=Nc2ccc(C)cc2)C(=CSc2ccc(C)cc2)CC1(C)C (mixture of isomers) [Compound 2-86]
100%: adulticidal rate [1] | insecticidal rate [2] | insecticidal rate [3] | insecticidal rate [4]

C=C1SC(=Nc2ccc(C)cc2)C(=CSc2ccc(Cl)cc2)CC1(C)C (mixture of isomers) [Compound 2-87]
100%: adulticidal rate [1] | insecticidal rate [2] | insecticidal rate [3] | insecticidal rate [4]

C=C1SC(=Nc2ccc(C)cc2)C(=CSc2cccc3ccccc23)CC1(C)C (mixture of isomers) [Compound 2-89]
100%: adulticidal rate [1] | insecticidal rate [2] | insecticidal rate [3] | insecticidal rate [4]

CC(C)=C1CCC(=CSc2ccc(F)cc2)C(=Nc2ccc(C)cc2)S1 (mixture of isomers) [Compound 6-2]
100%: adulticidal rate [1] | insecticidal rate [2] | insecticidal rate [3]

C=C1SC(=Nc2ccc(C)cc2)C(=CSc2cccnc2)CC1(C)C (mixture of isomers) [Compound 6-6]
100%: adulticidal rate [1] | insecticidal rate [2] | insecticidal rate [3]

C=C1SC(=Nc2ccc(C)cc2)C(=CSc2ccc(F)cc2F)CC1(C)C (mixture of isomers) [Compound 6-7]
100%: adulticidal rate [1] | insecticidal rate [2] | insecticidal rate [3]

C=C1SC(=Nc2ccccc2OC)C(=CSc2ccccc2)CC1(C)C [Compound 2-27]
100%: adulticidal rate [1] | insecticidal rate [2] | insecticidal rate [3]

C=C1SC(=Nc2cc(OC)cc(OC)c2)C(=CSc2ccccc2)CC1(C)C [Compound 2-38]
100%: adulticidal rate [1] | insecticidal rate [2]

C=C1SC(=Nc2ccc(OC)cc2)C(=CSc2ccccn2)CC1(C)C [Compound 2-50]
100%: adulticidal rate [1] | insecticidal rate [2] | insecticidal rate [4]

C=C1SC(=Nc2ccc(OC)cc2)C(=CSc2cccs2)CC1(C)C [Compound 2-51]
100%: adulticidal rate [1] | insecticidal rate [4]

C=C1SC(=Nc2ccc(C)cc2OC)C(=CSc2ccccc2)CC1(C)C [Compound 2-59]
100%: adulticidal rate [1] | insecticidal rate [2] | insecticidal rate [3]

C=C1SC(=Nc2c(C)cc(C)cc2C)C(=CSc2ccccc2)CC1(C)C [Compound 2-63]
100%: insecticidal rate [2] | insecticidal rate [3] | insecticidal rate [4]

C=C1SC(=Nc2c(F)cc(OC)cc2F)C(=CSc2ccccc2)CC1(C)C [Compound 2-65]
100%: insecticidal rate [2] | insecticidal rate [3] | insecticidal rate [4]

C=C1SC(=Nc2c(C)cc(C)cc2C)C(=CSc2cccs2)CC1(C)C [Compound 2-66]
100%: insecticidal rate [2] | insecticidal rate [3] | insecticidal rate [4]

C=C1SC(=Nc2c(C)cc(OC)cc2C)C(=CSc2ccccc2)CC1(C)C [Compound 2-67]
100%: insecticidal rate [2] | insecticidal rate [3] | insecticidal rate [4]

C=C1SC(=Nc2ccc(C)cc2)C(=CSc2nccs2)CC1(C)C [Compound 2-73]
100%: adulticidal rate [1] | insecticidal rate [3] | insecticidal rate [4]

C=C1SC(=Nc2ccc(C)cc2)C(=CSc2cccc(Cl)n2)CC1(C)C [Compound 2-91]
100%: insecticidal rate [2] | insecticidal rate [3] | insecticidal rate [4]

C=C1SC(=Nc2ccc(C)cc2)C(=CSc2ccncc2)CC1(C)C [Compound 2-92]
100%: adulticidal rate [1] | insecticidal rate [2] | insecticidal rate [3]

C=C1SC(=Nc2ccc(C)cc2)C(=CSc2ccoc2C)CC1(C)C [Compound 2-93]
100%: insecticidal rate [2] | insecticidal rate [3] | insecticidal rate [4]

C=C1SC(=Nc2ccc(C)cc2)C(=CSc2ccc(N(C)C)cc2)CC1(C)C [Compound 2-97]
100%: insecticidal rate [2] | insecticidal rate [3] | insecticidal rate [4]

C=C1SC(=Nc2ccc(C)cc2)C(=CSc2nccc(C(F)(F)F)n2)CC1(C)C [Compound 2-98]
100%: insecticidal rate [2] | insecticidal rate [3] | insecticidal rate [4]

C=C1SC(=Nc2ccc(C)cc2)C(=CSc2cccc(Br)c2)CC1(C)C [Compound 2-101]
100%: adulticidal rate [1] | insecticidal rate [2] | insecticidal rate [3]

C=C1SC(=Nc2ccc(C)cc2)C(=CSc2ccccc2Br)CC1(C)C [Compound 2-102]
100%: adulticidal rate [1] | insecticidal rate [2] | insecticidal rate [3]

C=C1SC(=Nc2ccc(C)cc2)C(=CSc2sccc2C)CC1(C)C [Compound 2-104]
100%: adulticidal rate [1] | insecticidal rate [2] | insecticidal rate [3]

C=C1SC(=Nc2ccc(C)cc2)C(=CSc2cccc(C(C)=O)c2)CC1(C)C [Compound 2-105]
100%: adulticidal rate [1] | insecticidal rate [3]

C=C1SC(=Nc2ccc(C)cc2)C(=CSc2cccc(C#N)c2)CC1(C)C [Compound 2-106]
100%: adulticidal rate [1] | insecticidal rate [2] | insecticidal rate [3]

C=C1SC(=Nc2ccc(C)cc2)C(=CSc2ccccc2C)CC1(C)C [Compound 2-111]
100%: adulticidal rate [1] | insecticidal rate [3]

C=C1SC(=Nc2ccc(C)cc2)C(=CSCc2ccccc2)CC1(C)C [Compound 2-112]
100%: insecticidal rate [2] | insecticidal rate [3] | insecticidal rate [4]

C=C1SC(=Nc2ccc(C)cc2)C(=CSc2ccc3ccccc3n2)CC1(C)C [Compound 2-113]
100%: adulticidal rate [1] | insecticidal rate [3]

C=C1SC(=Nc2ccc(C)cc2)C(=CSc2c(F)cccc2F)CC1(C)C [Compound 2-114]
100%: adulticidal rate [1] | insecticidal rate [2] | insecticidal rate [3]

C=C1SC(=Nc2ccc(C)cc2)C(=CSc2c(C)cccc2C)CC1(C)C [Compound 2-119]
100%: adulticidal rate [1] | insecticidal rate [2] | insecticidal rate [3]

C=C1SC(=Nc2ccc(C)cc2)C(=CSc2nccc(C)n2)CC1(C)C [Compound 2-121]
100%: insecticidal rate [2] | insecticidal rate [3] | insecticidal rate [4]

C#CCSC=C1CC(C)(C)C(=C)SC1=Nc1ccc(C)cc1 [Compound 2-122]
100%: insecticidal rate [2] | insecticidal rate [3] | insecticidal rate [4]

C=C1SC(=Nc2ccc(OC)cc2)C(=CSc2nccc(C)n2)CC1(C)C [Compound 2-127]
100%: insecticidal rate [2] | insecticidal rate [3] | insecticidal rate [4]

C=C1SC(=Nc2ccccc2)C(=CSc2nccc(C)n2)CC1(C)C [Compound 2-128]
100%: insecticidal rate [2] | insecticidal rate [3] | insecticidal rate [4]

C=C1SC(=Nc2ccccc2)C(=CSc2cccs2)CC1(C)C [Compound 2-129]
100%: insecticidal rate [2] | insecticidal rate [3] | insecticidal rate [4]

C=C1SC(=Nc2ccc(C)c(C)c2)C(=CSc2nccc(C)n2)CC1(C)C [Compound 2-132]
100%: insecticidal rate [2] | insecticidal rate [3] | insecticidal rate [4]

C=C1SC(=Nc2ccc(C)cc2)C(=CSc2ccc(C(C)C)cc2)CC1(C)C [Compound 2-151]
100%: adulticidal rate [1] | insecticidal rate [2] | insecticidal rate [3]
